For one data set, the system named is Mtb H37Rv (ATCC27294). As to the kind of experiment: Antimycobacterial activity, microplate Alamar blue assay (MABA). The data set is classed as cell-based, Mycobacterium tuberculosis. As to conditions: for MIC: Mycobacterium tuberculosis, Mtb H37Rv; for antimycobacterial activity (in words): Mtb strain H37Rv. (In general: The colour change of resazurin is a common sign of viable cells or microbes.)

The subject of the next data set is C. neoformans (2.3201). As to the kind of experiment: Antifungal activity, broth microdilution. The data set is classed as cell-based. As to conditions: Cryptococcus neoformans. The procedure:
(§1) All synthesized compounds and the positive control drugs amphotericin B and ketoconazole were tested for their in vitro antifungal activity. Antifungal activity was evaluated against four fungi, C. albicans (ATCC90028), C. tropicalis (ATCC7349), A. fumigatus (3.5352), and C. neoformans (2.3201), by broth microdilution according to the protocols from the NCCLS (Jiang et al., [2014]). Briefly, all tested compounds were dissolved in DMSO, and the solutions were diluted with fresh broth medium. All of the fungi-seeded broth (1 × 10^5 colony-forming units [CFU]/mL) were prepared in RPMI 1640 medium and added into the serially diluted drug solution. The tubes were incubated at 28°C, and the MIC (μg/mL) was recorded 72–96 h post-incubation. Broth control (without fungi), growth controls (with fungi and without drug), solvent (DMSO) control, and drug control for both test drugs and standard drugs were set under identical conditions. The minimum drug concentration in the tubes in which no apparent growth of the organism was observed represented the MIC of the compounds.
For orientation: Broth dilution looks for growth in wells or tubes with falling amounts of substance.

In a further data set the test system is A. fumigatus (3.5352). As to the kind of experiment: Antifungal activity, broth microdilution. Type of data set: cell-based. As to conditions: Aspergillus fumigatus. The procedure:
as §1

The test system of the next data set is C. tropicalis (ATCC7349). In words: Antifungal activity, broth microdilution. The data set is classed as cell-based. The following applies: Candida tropicalis. The procedure: as §1
Another data set deals with VERO cell line. As to the kind of experiment: Cytotoxicity MTT assay. Type of data set: cell-based. As to conditions: Chlorocebus sabaeus, cytotoxicity in VERO cells, 72 h. The procedure: VERO cells (2 × 10^4 cells) were seeded into 96-well plates and incubated for 12 h. Serial dilutions of the compounds were mixed with the cell suspension in the plates. Both treated cells and blank and solvent controls were incubated for 72 h, followed by incubation with MTT (0.5 mg/mL) for another 4 h. The microplates were measured at 570 nm using a multimode reader (Infinite M200, Tecan). The percentage of viable cells was calculated as the mean with respect to the controls set to 100%. Triplicate wells were analyzed for each concentration. IC50 was defined as the concentration that reduced the viable cells by 50% compared to the untreated control cells. It was considered significant when the SI was more than 10.

The test system of the next data set is C. albicans (ATCC90028). In words: Antifungal activity, broth microdilution. The data set is classed as cell-based, Candida albicans. The procedure: as §1
Data set [1] has as its system Candida albicans, Candida tropicalis, Aspergillus fumigatus, and Cryptococcus neoformans. As to the kind of experiment: Antifungal activity, broth microdilution, stated for the four fungi together. The following applies: read-out: MIC (antifungal, over the four fungi). Type of data set: cell-based. The procedure:
as §1

Data set [2] has as its system TB-infected macrophage model. As to the kind of experiment: Macrophage assay (TB-infected macrophage model). Type of data set: cell-based, Mycobacterium tuberculosis.
Setting [3] is: repeated in Table 5 for the 3D-QSAR models, read-out: MIC.
Setting [4] is: experimental pMIC, Table 5, read-out: pMIC exp (converted).
The mark [5] stands for this setting: C. neoformans 2.3201, read-out: MIC.
Where [6] appears, read: A. fumigatus 3.5352, read-out: MIC.
Setting [7] is: C. tropicalis ATCC 7349, read-out: MIC.
The mark [8] stands for this setting: Candida albicans ATCC 90028, read-out: MIC.
The mark [9] stands for this setting: C. albicans, C. tropicalis, A. fumigatus, C. neoformans together.

As a reminder, the IC50 is the concentration that gives 50% inhibition. Lower therefore signals greater potency. A word on the melting point: it is the temperature of the solid-liquid transition. For orientation: EC90 means the concentration needed for an effect of 90%. In general, EC99 refers to the concentration at which the effect reaches the 99% level. A higher EC99 goes with a need for much substance.

Converted amounts (≈) assume the structure as drawn. Like-named read-outs stand apart in the source and are kept apart here.

In turn, `Cc1ccc(N2C(=O)CSC2c2c[n+]([O-])c3ccc(Cl)cc3[n+]2[O-])cc1` (stereo not drawn) [2w, 7-Cl-2-(3′-P-methylphenyl-4′(5H)-thiazolidinone)-quinoxaline-1,4-di-N-oxide] gave a melting point of 250 to 252 °C. Further, the MIC in the data set with Mtb H37Rv (ATCC27294) (MABA assay, read-out: MIC) was determined as 6.25 µg/mL. Besides, the MIC in the data set with Mtb H37Rv (ATCC27294) (setting [3]) was 6.25 µg/mL. The MIC in the data set on Mtb H37Rv (ATCC27294) (setting [4]) was 16.1 µM. Further, the MIC with C. neoformans (2.3201) (setting [5]) turned out to be 4 µg/mL (≈ 10.3 µM). The MIC with A. fumigatus (3.5352) (setting [6]) was 8 µg/mL (≈ 20.6 µM). Further, the MIC with C. tropicalis (ATCC7349) (setting [7]) turned out to be 4 µg/mL (≈ 10.3 µM). Also, in the data set with VERO cell line, the IC50 came to 125 µg/mL (≈ 323 µM). Also, the MIC in the data set with C. albicans (ATCC90028) (setting [8]) stood at 8 µg/mL (≈ 20.6 µM).
Take `O=C1CSC(c2c[n+]([O-])c3ccc(F)cc3[n+]2[O-])N1c1ccc(F)cc1` (stereo not drawn) [2t, 7-F-2-(3′-P-fluorophenyl-4′(5H)-thiazolidinone)-quinoxaline-1,4-di-N-oxide]: the melting point fell in the range of 250 to 253 °C. Further, in the data set on Mtb H37Rv (ATCC27294), the “antimycobacterial activity (in words)” value was “good antimycobacterial activity”. In the data set with Mtb H37Rv (ATCC27294) (MABA assay, read-out: MIC), the MIC amounted to 1.56 µg/mL. The MIC in the data set on Mtb H37Rv (ATCC27294) (setting [3]) was 1.56 µg/mL. In addition, the MIC in the data set with Mtb H37Rv (ATCC27294) (setting [4]) was 4.16 µM. Further, the MIC with C. neoformans (2.3201) (setting [5]) is 4 µg/mL (≈ 10.7 µM). Also, the MIC in the data set with A. fumigatus (3.5352) (setting [6]) turned out to be 4 µg/mL (≈ 10.7 µM). For the same compound, the MIC with C. tropicalis (ATCC7349) (setting [7]) was determined as 2 µg/mL (≈ 5.33 µM). Also, the MIC in data set [1] (setting [9]) was in the range of 2 to 4 µg/mL (≈ 5.33 to 10.7 µM). In the data set with VERO cell line, this compound came in with an IC50 of 101 µg/mL (≈ 269 µM). The compound also came in with an EC90 in data set [2] (Mycobacterium tuberculosis, Macrophage, 168 h, concentration causing 90% reduction in residual mycobacterial growth after 7 days) of 1.66 µg/mL (≈ 4.42 µM). Besides, the EC99 in [2] (concentration causing 99% reduction in residual mycobacterial growth after 7 days) worked out at 5.25 µg/mL. Also, the MIC in the data set with C. albicans (ATCC90028) (setting [8]) came to 4 µg/mL (≈ 10.7 µM).
`CC(=O)N1CCN(c2ccc(OCC3COC(Cn4ccnc4)(c4ccc(Cl)cc4Cl)O3)cc2)CC1` (stereo not drawn) [KCZ, Ketoconazole, reference compound]: the MIC with C. neoformans (2.3201) is 0.25 µg/mL (≈ 0.47 µM); in the data set on A. fumigatus (3.5352) it was 0.5 µg/mL (≈ 0.941 µM); against C. tropicalis (ATCC7349) it was 0.5 µg/mL (≈ 0.941 µM); in data set [1], 0.25 to 2 µg/mL (≈ 0.47 to 3.76 µM); in the data set with C. albicans (ATCC90028) (Candida albicans) it was 0.25 µg/mL (≈ 0.47 µM).
Compound `O=C1CSC(c2c[n+]([O-])c3ccc(F)cc3[n+]2[O-])N1c1ccccc1` (stereo not drawn) [2q, 7-F-2-(3′-phenyl-4′(5H)-thiazolidinone)-quinoxaline-1,4-di-N-oxide] yielded a melting point of 249 to 252 °C. Further, the MIC in the data set with Mtb H37Rv (ATCC27294) (MABA assay, read-out: MIC) was 6.25 µg/mL. Moreover, the MIC with Mtb H37Rv (ATCC27294) (setting [3]) amounted to 6.25 µg/mL. Moreover, in the data set on Mtb H37Rv (ATCC27294) (setting [4]), the MIC was 17.5 µM. In addition, the MIC in the data set with C. neoformans (2.3201) (setting [5]) is 16 µg/mL (≈ 44.8 µM). Further, in the data set with A. fumigatus (3.5352) (setting [6]), the MIC worked out at 16 µg/mL (≈ 44.8 µM). Besides, in the data set with C. tropicalis (ATCC7349) (setting [7]), the MIC came out at 4 µg/mL (≈ 11.2 µM). In addition, the IC50 in the data set with VERO cell line was determined as 126 µg/mL (≈ 354 µM). In addition, the MIC with C. albicans (ATCC90028) (setting [8]) came to 8 µg/mL (≈ 22.4 µM).
With `C[C@@H]1[C@H](O)[C@@H](C)/C=C/C=C/C=C/C=C/C=C/C=C/C=C/[C@H](O[C@@H]2O[C@H](C)[C@@H](O)[C@H](N)[C@@H]2O)C[C@@H]2O[C@](O)(C[C@@H](O)C[C@@H](O)[C@H](O)CC[C@@H](O)C[C@@H](O)CC(=O)O[C@H]1C)C[C@H](O)[C@H]2C(=O)O` [AMB, Amphotericin b, reference compound], the MIC in the data set on C. neoformans (2.3201) (setting [5]) is 0.5 µg/mL (≈ 0.541 µM); with A. fumigatus (3.5352) (setting [6]), 0.5 µg/mL (≈ 0.541 µM); in the data set with C. tropicalis (ATCC7349) (setting [7]), 2 µg/mL (≈ 2.16 µM); in data set [1] (setting [9]), 0.25 to 2 µg/mL (≈ 0.271 to 2.16 µM); with C. albicans (ATCC90028) (setting [8]), 1 µg/mL (≈ 1.08 µM).
For `O=C1CSC(c2c[n+]([O-])c3ccccc3[n+]2[O-])N1c1ccccc1` (stereo not drawn) [2a, 2-(3′-phenyl-4′(5H)-thiazolidinone)-quinoxaline-1,4-di-N-oxide], the melting point fell in the range of 245 to 248 °C. Moreover, in the data set with Mtb H37Rv (ATCC27294), the “antimycobacterial activity (in words)” value is listed as “good antimycobacterial activity”. The MIC in the data set on Mtb H37Rv (ATCC27294) (MABA assay, read-out: MIC) worked out at 6.25 µg/mL. Moreover, the MIC in the data set with Mtb H37Rv (ATCC27294) (setting [3]) turned out to be 6.25 µg/mL. The MIC in the data set with Mtb H37Rv (ATCC27294) (setting [4]) is 18.5 µM. For the same compound, the MIC in the data set on C. neoformans (2.3201) (setting [5]) was determined as 16 µg/mL (≈ 47.1 µM). For the same compound, the MIC in the data set on A. fumigatus (3.5352) (setting [6]) amounted to 32 µg/mL (≈ 94.3 µM). Further, in the data set with C. tropicalis (ATCC7349) (setting [7]), the MIC stood at 8 µg/mL (≈ 23.6 µM). For the same compound, in the data set with VERO cell line, the half-maximal inhibitory concentration (IC50) came out at 144 µg/mL (≈ 423 µM). Besides, the MIC in the data set with C. albicans (ATCC90028) (setting [8]) turned out to be 16 µg/mL (≈ 47.1 µM).
